Reference: patent publication US7312236B2, “Substituted (4-aminocyclohexen-1-yl)phenyl and (4-aminocyclohexen-1-yl)pyridinyl compounds as 5-HT1F agonists” (Eli Lilly and Company, priority 2004, dated 2007)

Tests used:
rabbit saphenous vein = experiment: Rabbit saphenous vein contraction; conditions: Oryctolagus cuniculus
Experimental: Bend the tips of two 30-gauge stainless steel hypodermic needles into an L-shape and slip them into the lumen of the polyethylene tubing. Gently push vein tissue from the cannula onto the needles. Separate the needles and attach the lower needle with thread to a stationary glass rod and the upper needle with thread to a force transducer (Statham UC-3). Mount the tissues in organ baths containing 10 mL of modified Krebs' solution. Maintain tissue bath solutions at 37° C. and […] […] Apply an initial optimum resting force of 4 grams to the vein tissue. Record isometric contractions as changes in grams of force on a Beckman Dynograph with Statham UC-3 transducers and microscale accessory attachments. […] Flush the bath, allow the tissue to re-equilibrate under a 4 gram force, add test compound and record the force of contraction. Add additional compound to achieve the next concentration in a range of compound concentrations to generate cumulative agonist concentration-response curves for each test compound. Tissues can be used to generate up to two agonist concentration-response curves. […] Two important parameters can be measured with this vasoconstriction assay, saphenous vein contraction (EC50) and maximal contraction as a percentage of the maximal KCl response (%max KCl).

[1] = system: dural protein extravasation; experiment: Dural protein extravasation assay (trigeminal ganglion stimulation); parameters: species or system rats or guinea pigs; conditions: in vivo
Experimental: The inhibition of dural protein extravasation is a functional assay for the neuronal mechanism of migraine. A compound's ability to inhibit dural protein extravasation can be tested as described in the following assay.
Anesthetize Harlan Sprague-Dawley rats (225-325 g) or guinea pigs from Charles River Laboratories (225-325 g) with sodium pentobarbital (intraperitoneal injection, 65 mg/kg or 45 mg/kg, respectively). For each animal, place the animal in a stereotaxic frame (David Kopf Instruments) with the incisor bar set at −3.5 mm for rats or −4.0 mm for guinea pigs. […]
Quantify the amount of Evans Blue dye in each sample using a fluorescence microscope (Zeiss) equipped with a grating monochronomator, a spectrophotometer, a computer-driven motorized stage, and an interface to a personal computer. For each dural membrane sample, measure fluorescence at 25 points (500 μm steps covering a 2.5×2.5 mm square area) using an excitation wavelength of approximately 535 nm and measuring the emission intensity at a wavelength of 600 nm. Determined the mean and standard deviation of these measurements. […]

## CNS(=O)(=O)Cc1ccc2[nH]cc(CCN(C)C)c2c1 [sumatriptan]
Rabbit saphenous vein
  EC50: 660 nM
[1]
  extravasation inhibition ID50: 2.6e-08 mmol/kg
